Results taken from patent publication US20250108119A1, “NOVEL STEROID PAYLOADS, STEROID LINKERS, ADCs CONTAINING AND USE THEREOF” (IMMUNEXT, INC., priority 2021, published 2025).
Entries after “also recorded” stand apart in the source; their conditions may differ.

Columns and labels:
[1] = system: peritoneal resident macrophages (PRM); assay: In vivo treatment/ex vivo PRM activation, TNFα and IL-6 in supernatant; parameters: species or system hVISTA mice; settings: linker/payloads as anti-VISTA conjugates
Protocol: Based thereon we developed a model to allow us to evaluate long-term anti-inflammatory impact of ADC on specific target populations, such as PRMs. […] In the absence of GC treatment, after 2h PRMs become highly activated as shown by increases in cytokine production. […] The objective of these studies was to evaluate the efficacy and pharmacodynamic range of INX human VISTA antibodies conjugated to a glucocorticoid payload as compared to free Dex.
After euthanasia, mice were injected in the peritoneal cavity with 7 ml of PBS/0.5% BSA/2 mM EDTA. After a brief massage of the peritoneum, a small incision was performed and the peritoneal lavage collected. PRM were isolated using negative selection (Miltenyi kit, ref 130-110-434). Spleen were dissected and dissociated mechanically; monocytes were isolated using […] (Stem Cell, EasySep™ Mouse CD11b Positive Selection Kit II).
PRMs were resuspended in RPMI 1640 with 10% FBS, 10 mM Hepes, Penicillin/Streptomycin and glutamine and 100,000 cells were plated per well in a 96-well tissue culture plate. Supernatants were collected at 2 and 24h post plating and stored at −80° C. […]
• BioLegend (cat #430904) ELISA MAX Deluxe Set Mouse TNF-α • BioLegend (cat #431304) ELISA MAX Deluxe Set Mouse IL-6
ELISAs were conducted following the manufacturer's included protocol.

human PBMC [2] = assay: Identification and quantification of released payload in human PBMC (MS); assay type: in vitro ADME; settings: 4 hrs, same antibody
Protocol: In all the following experiments, human PBMC, isolated from 1 healthy donor per study, were treated with exemplary anti-VISTA glucocorticoid conjugates according to the invention to allow identification and quantification of the released payload.
In the present experiments, after incubating PBMC with glucocorticoid (GC) antibody drug conjugates (ADC) for 4h, cells were harvested and assessed for both FKBP5 transcription induction via quantitative real time PCR (qPCR) as well as assessed via mass spectrometry (MS) for released payload identification and quantification.
Isolated PBMCs were resuspended in RPMI 1640 containing 10% human AB serum, 10 mM Hepes, 1× Penicillin/Streptomycin/L-Glutamine (assay media).
PBMCs from 1 donor were washed 2× in PBS, and then resuspended at 1×10^7/mL in media. […]
Remaining cells for each treatment were dived into aliquots representing 50 million cells per aliquot (for metabolite quantification only one aliquot per condition was generated). […]
Media was removed from each cell pellet with the media then set aside at −80C until it could be assessed for the concentration of effluxed payload. […]
Briefly, pre-chilled 70% ACN (extraction buffer) was added to the PBMC pellets for extraction. […] was injected onto the LCMS (Luna C18 (2) column, Thermo Scientific Q Exactive Hybrid Quadrupole Orbitrap) and resulting masses assessed. […]

human PBMC [3] = assay: Cytokine production (IL-1β, IL-6) at 24 hr by human PBMC incubated with 1 ng/mL LPS; assay type: cell-based; settings: free steroid payloads, serial dilutions, 1 ng/mL LPS, 24 hr
How it was run: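 Human PBMC were stimulated with 1 ng/mL LPS together with serial dilutions of steroid payloads or glucocorticoid conjugates, spanning up to 8,000 nM down to 0.032 nM depending on the series. IL-1β and IL-6 were measured at 24 hr from technical duplicates, with 1-2 donors. Values above the ULOQ were extrapolated.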

[4] = system: LPS stimulated human PBMCs; assay: LPS stimulated human PBMC, IL-1β and IL-6 ELISA; assay type: cell-based
How it was run: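 Human PBMC (1-2 healthy donors), 150,000 cells/well, treated with test agents at 1,000 nM down to 1 nM or 0.2 nM, in duplicate. LPS at 1 ng/ml added immediately after free payload or 4 h after conjugates; IL-1β and IL-6 in supernatants measured by ELISA.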

FKBP5 = FKBP5 transcription in isolated human monocytes, B cells and Tregs; assay type: cell-based; settings: Experiment 3: 20 nM payload, 2 donors
Source text: Monocytes or B cells were isolated from healthy donor blood samples and treated with free steroid, anti-VISTA conjugated steroid, or conjugated isotype control. RNA was isolated, and change in FKBP5 transcript level assessed by qPCR.
The various immune populations were isolated using different cell isolation kits and following manufacturer instructions: • EasySep Human monocyte enrichment kit without CD16 depletion (StemCell cat #19058) • Pan B cell isolation kit, human (Miltenyi Biotec, 130-101-638). • EasySep™ Human CD4+CD127 low CD49d-regulatory T cell enrichment Kit (StemCell cat #19232)
Monocytes, B cells or Tregs were plated (from single donors) at 2×10^6 cells per well in a 12-well plate in RPMI, 10% human AB serum, 10 mM Hepes, 1× Penicillin/Streptomycin/Glutamine.
For single dose experiments, cells were treated with 20 nM free J payload or INX-SM-3 payload or the molar payload equivalent of huIgG1si J, INX201J or INX231P (the linked form of INX-SM-3). […]
After one wash with PBS, RNA was isolated from cell pellets using either the RNeasy Plus Mini kit (Qiagen, PN: 74136) or NucleoSpin RNA Plus (Macherey-Nagel #740984.250). […] RNA concentration was assessed by UV spectroscopy using a Nanodrop 2000. […]
Quantitative Real-Time PCR was done using Taqman master mix 2× kit (#4369016) and run on a QuantStudio3 from Applied Biosystem. […]

[5] = target: CD163 on human blood cells (human) (UniProt Q86VB7); assay: flow cytometry, AF647-labelled antibody, bead-calibrated; CD14+ monocytes, human PBMC, n=5 donors, mean±SD
Chain of CD163 on human blood cells (human) (Q86VB7 42-1156): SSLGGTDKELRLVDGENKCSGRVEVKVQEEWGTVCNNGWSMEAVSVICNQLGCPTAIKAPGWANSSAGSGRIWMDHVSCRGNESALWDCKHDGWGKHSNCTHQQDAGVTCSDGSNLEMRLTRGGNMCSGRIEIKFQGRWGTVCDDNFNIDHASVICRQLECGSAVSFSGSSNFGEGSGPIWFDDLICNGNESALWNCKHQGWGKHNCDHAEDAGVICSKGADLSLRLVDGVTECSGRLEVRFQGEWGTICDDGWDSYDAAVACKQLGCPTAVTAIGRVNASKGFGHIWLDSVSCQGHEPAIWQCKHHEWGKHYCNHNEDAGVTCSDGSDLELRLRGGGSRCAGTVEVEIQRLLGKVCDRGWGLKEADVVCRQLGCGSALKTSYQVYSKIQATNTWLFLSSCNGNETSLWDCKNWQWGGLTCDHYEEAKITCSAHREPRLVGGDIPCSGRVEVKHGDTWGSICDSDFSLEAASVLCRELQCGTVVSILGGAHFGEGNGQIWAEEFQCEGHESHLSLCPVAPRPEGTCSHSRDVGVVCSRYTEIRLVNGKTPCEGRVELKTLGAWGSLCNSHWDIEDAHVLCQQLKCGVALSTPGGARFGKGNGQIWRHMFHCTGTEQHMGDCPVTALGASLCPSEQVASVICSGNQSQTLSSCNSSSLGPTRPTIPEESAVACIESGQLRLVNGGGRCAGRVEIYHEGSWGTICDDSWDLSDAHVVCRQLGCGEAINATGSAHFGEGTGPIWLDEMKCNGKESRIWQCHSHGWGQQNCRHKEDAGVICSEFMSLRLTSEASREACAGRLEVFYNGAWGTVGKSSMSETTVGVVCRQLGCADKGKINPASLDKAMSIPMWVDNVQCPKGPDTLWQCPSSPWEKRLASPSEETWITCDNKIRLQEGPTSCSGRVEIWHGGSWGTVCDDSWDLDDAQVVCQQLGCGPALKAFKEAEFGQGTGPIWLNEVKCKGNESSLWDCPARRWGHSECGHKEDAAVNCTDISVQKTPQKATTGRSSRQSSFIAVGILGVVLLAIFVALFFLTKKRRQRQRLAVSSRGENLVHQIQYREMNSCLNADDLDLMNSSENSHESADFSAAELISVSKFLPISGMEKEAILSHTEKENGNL

[6] = target: CD163 on human blood cells (human) (UniProt Q86VB7); assay: flow cytometry, AF647-labelled antibody, bead-calibrated; CD14+ monocytes, human whole blood, n=3 donors, mean±SD
human VISTA on cells [7] = target: T1, human VISTA on cells (human, UniProt Q9H7M9 33-311); assay: flow cytometry, AF488-labelled antibody on CD14+ monocytes of human PBMC, MFI normalised to INX200 at t=0
T1 sequence: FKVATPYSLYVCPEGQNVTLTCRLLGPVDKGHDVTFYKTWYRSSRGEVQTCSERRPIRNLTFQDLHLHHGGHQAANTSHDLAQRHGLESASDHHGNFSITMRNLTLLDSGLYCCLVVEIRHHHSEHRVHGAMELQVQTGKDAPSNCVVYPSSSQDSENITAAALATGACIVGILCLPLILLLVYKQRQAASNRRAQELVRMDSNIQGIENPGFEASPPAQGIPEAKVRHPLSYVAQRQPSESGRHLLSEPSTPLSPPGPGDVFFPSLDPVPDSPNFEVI

human VISTA on cells [8] = target: T1, human VISTA on cells; assay: cell-based or functional assay
[9] = target: T2, hIX50 (human VISTA ECD, produced at Aragen Bioscience) (human, UniProt Q9H7M9 33-194, biotinylated in the pH ELISA (sites not given)); assay: ELISA: hIX50 coated at 1 ug/mL; antibody titrated in PBS/Tween/BSA; mouse anti-human kappa-HRP/TMB; OD 450 nm.
T2 construct: also called hINX50; soluble VISTA
T2 sequence: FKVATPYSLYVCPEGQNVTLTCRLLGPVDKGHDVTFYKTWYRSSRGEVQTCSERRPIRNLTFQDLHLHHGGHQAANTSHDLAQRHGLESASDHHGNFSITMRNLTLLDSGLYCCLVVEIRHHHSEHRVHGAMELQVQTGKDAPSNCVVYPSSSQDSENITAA

[10] = target: T2, hIX50 (human VISTA ECD, produced at …); assay: ELISA at pH 7.5: INX200 coated at 1 ug/mL; biotinylated hIX50 titrated at 0.001-1000 ng/mL; streptavidin-HRP/TMB; OD 450 nm. The value is a concentration of hIX50.

## C[C@]12C=CC(=O)C=C1CC[C@@H]1[C@@H]2[C@@H](O)C[C@@]2(C)[C@H]1C[C@H]1O[C@@H](c3ccc(CC45CC(NC(=O)[C@H](CCC(=O)O)NC(=O)CNC(=O)CBr)(C4)C5)cc3)O[C@]12C(=O)CO [INX P, (S)-4-(2-(2-bromoacetamido)acetamido)-5-((3-(4-((6aR,6bS,7S,8aS,8bS,10R,11aR,12aS,12bS)-7-hydroxy-8b-(2-hydroxyacetyl)-6a,8a-dimethyl-4-oxo-2,4,6a,6b,7,8,8a,8b,11a,12,12a,12b-dodecahydro-1H-naphtho[2′,1′:4,5]indeno[1,2-d][1,3]dioxol-10-yl)benzyl)bicycle[1.1.1]pentan-1-yl)amino)-5-oxopentanoic acid]
[1]
  potency in PRM cytokine model when dosed 7 days early (conclusions): show similar potency when dosed 7 days early
Human PBMC [2]
  released payload relative to INX J / INX231J: ~3 ×

## C[C@]12C=CC(=O)C=C1CC[C@@H]1[C@@H]2[C@@H](O)C[C@@]2(C)[C@H]1C[C@H]1O[C@@H](c3ccc(CC45CC(N)(C4)C5)cc3)O[C@]12C(=O)CO [INX-SM-3, (6aR,6bS,7S,8aS,8bS,10R,11aR,12aS,12bS)-10-(4-((3-aminobicyclo[1.1.1]pentan-1-yl)methyl)phenyl)-7-hydroxy-8b-(2-hydroxyacetyl)-6a,8a-dimethyl-1,2,6a,6b,7,8,8a,8b,11a,12,12a,12b-dodecahydro-4H-naphtho[2′,1′:4,5]indeno[1,2-d][1,3]dioxol-4-one]
Human PBMC [3]
  inhibition of IL-1β production: inhibit; also recorded: robust inhibition
  inhibition of IL-6 production: inhibit
[4]; Experiment 1: free payload 1000-1 nM, 1 ng/ml LPS, 24 hr, n=1 donor
  inhibition of IL-1β and IL-6 production: inhibit both IL-1β and IL-6 production; also recorded: the most potent compound among these three
[4]; Experiment 2: free payload 1000-1 nM, 24 hr, n=1 donor
  inhibition of IL-1β production: show inhibition in IL-1β production; also recorded: again the most potent compound among these compounds tested
[4]; Experiment 8: free payload 1000-0.5 nM
  inhibition of IL-1β production: robust inhibition in IL-1B production
FKBP5
  FKBP5 transcription in Tregs: lead to increased FKBP5 transcription

## CD163 Alexa Fluor 647 clone GHI/61 (BioLegend) (antibody)
[5]
  antibody binding capacity (ABC) (ABC (molecules per cell)): 36700
[6]
  antibody binding capacity (ABC) (ABC (molecules per cell)): 13100

## Human IgG1si (antibody)
Human VISTA on cells [7]
  nonspecific signal at 0 min relative to INX200 (MFI, percent): 5.9%

B1: INX201J (other)
VH: QVQLVQSGAEVKKPGASVKVSCKASGYTFANYLIGWVRQAPGQRLEWMGDIYPGGGFISYNEKFKGRVTITRDTSASTAYMELSSLRSEDTAVYYCARRFDYGGYFFDYWGQGTLVTVSS
VL: DIVMTQSPLSLPVTPGEPASISCRSSQSIVHSNGNIYLEWYLQKPGQSPQLLIYKVSNRFSGVPDRFSGSGSGTDFTLKISRVEAEDVGVYYCFQGSHVPWTFGQGTKLEIK
modifications: linker/payload INX J on the interchain disulfide cysteines; linker/payload INX J (protease sensitive linker, budesonide analog INX J-2) on the interchain disulfide cysteines, DAR 8.0
Human VISTA on cells [8]
  FKBP5 transcription (qRT-PCR) in isolated human Tregs, 20 nM payload, against conjugated isotype control: 2.1 fold

B2: INX200 (antibody, human IgG1, V domains shown)
VH: B1 VH
VL: B1 VL
notes: also called humanized anti-human VISTA antibody on a human IgG1/kappa backbone with L234A/L235A silencing mutations
[9]
  EC50 (read off the curve): ~8 ng/mL
[10]
  EC50 (read off the curve): ~0.7 ng/mL
